Data published in PMC5642494 (Oncotarget, 2017).
pEC50, pIC50: −log10 of the molar value.

Assays:
EFM-19 cells = assay: Ki-67 protein expression, EFM-19; format: cell-based; conditions: Homo sapiens, 2 DT, read-out: EC50 Ki-67 levels
Method: (§1) Relative IC50/EC50 values were determined by curve fitting to a four parameter logistic equation: Y = bottom + ((top-bottom)/ (1+exp(HillSlope*(X – LnIC50)), where X is the natural log of dose/concentration, Y is response, decreasing as X increases, top and bottom are plateaus in the same units as Y, lnIC50 is the natural log of potency, in the same log units as X, and HillSlope measures the steepness of the curve. Data were plotted using GraphPad Prism.
(§2) After 72 hours, cells were stained with an anti-FOXM1 antibody and a secondary goat anti-rabbit IgG, Alexa Fluor® 488 conjugate; nuclei were stained with propidium iodide (PI). Alternatively, for assessment of Ki-67 levels, cells were treated for 2 DT and then stained with Ki-67 and a secondary goat anti-rabbit IgG, Alexa Fluor® 488 conjugate. Plates were read in an Acumen Explorer Ex3 (TTP Labtech) using Cellista software and the percentages of FOXM1 positive and Ki-67 positive cells were calculated over the background signal. Data were normalized in Excel using the mean value obtained from treatment with 2 µM BEZ235 as the minimum and the mean value obtained from treatment with 0.2% DMSO as the maximum.

FOXM1 = FOXM1 protein expression, EFM-19; format: cell-based; conditions: Homo sapiens, 1 DT, read-out: IC50 reduction in FOXM1 positive cells
Method: as §1, §2

[1] = test system: HR+ and HR- breast cancer cell lines; assay: Proliferation after washouts (EdU Click-iT) in breast cancer lines; format: cell-based, human
Method: Images were SA-β-galactosidase immunocytochemical labeling taken by fluorescent microscopy using a Leica DMiL. […] SA-β-gal Cell samples were lysed after treatment with expression was determined using the Senescence Cells 100 μL lysis buffer and transferred to a 96-well plate. Histochemical Staining Kit (Sigma, CS0030) following 30 μL of each sample were transferred into deep well the vendor 's manual. Images were taken at 100x by bright plates using TECAN-EVO Workstation. Samples were field microscopy (Leica DMiL). treated for derivatization of the metabolites of interest and internal standards. For this, 50 μL of derivatization reagent Proliferation studies after washouts (EdU Click- and 80 μL of internal standard (IS, SupplementaryTable iT®) 1), were added with multidrop, plates were vortexed for 5 mins and let sit for one hour at 4 °C. The IS used were the Cells were plated onto poly-D-lysine D or 13C-labeled commercial analogues of nine of the ten coated 96-well plates at a density of 2,000-6,000 metabolites, prepared at 25 μM in water (Supplementary viable cells per well, and treated with abemaciblib or Table 1). The derivatization reagents (from Sigma), […] washout schedule shown on Supplementary Figure 1A. […] EdU Samples were analyzed by LC-MS/MS under the detection was performed using the Click-iT High Content conditions described below. […] Cell images were captured using a Cellomics Arrayscan VTI and analyzed Analysis of the derivatized-extracted samples with the Target Activation bio-application V.3 reading in 4 was carried out with an Agilent 6460 Triple Quadrupole channels at a magnification of 10X. […] The software relative levels and sub-cellular localization of EdU were for data collection and treatment was Agilent Masshunter determined through the respective intensities and locations Workstation. Mobile phases for chromatography were: of Alexa-488 fluorescence. mobile phase A: formic acid (5 mM) and ammonium formate (10 mM) in water; mobile phase B: acetonitrile. […]

Q: What does the source list for CCN1CCN(Cc2ccc(Nc3ncc(F)c(-c4cc(F)c5nc(C)n(C(C)C)c5c4)n3)nc2)CC1 [abemaciclib, Abemaciclib]?
A: pEC50 (EFM-19 cells): 7.78; pIC50 (FOXM1): 8.10; DNA synthesis / proliferation as measured by EdU incorporation ([1]; HR+ versus HR- breast cancer cell lines, exposure 2 hr, 24 hr or 72 hrs followed by washout): preferentially reduced in HR+ compared to HR- cell lines; sensitivity of HR- cell lines with RB1 mutation or loss (EdU incorporation) ([1]; MDA-MB-468, BT549, BT20, HCC1937, HCC70): insensitive
